Test results reported in patent US4820707A, “2,6-piperazinedione compounds” (ADIR Et Cie, priority 1986, dated 1989).

Legend:
Format in all cases: in vivo
[1] = Anxiolytic activity by the four-plates test; settings: mice; for change in vivo at 5 mg/kg: Mus musculus, ip, i.p., 5 mg.kg^-1, read-out: % increase in the responses (transitions)
Procedure: The anxiolytic activity of the compounds of the general formula I was investigated in mice according to the method of Aron Simon Larousse and Boissier described in Neuropharmacology (1971) 10 p. 459-469). After treatment of the animals by means of different doses of the compounds of the invention administered intraperitoneally or orally, the increase in the percentage of transitions during the exploration of the base of the test cage, in the presence of electric shocks, was assessed.

[2] = Anxiolytic activity by the "staircase" test; parameters: key to % variation in the steps climbed: NS: not significant; settings: rats
Text: The anxiolytic activity of the compounds of the invention was investigated in rats according to the method described by Thiebot, Soubrie and Boissier in J. Pharmacol. 1976, 7, (1), p. 87-102. In this test, behavior involving rearing movements is associated with a state of distress of the animal. The number of steps climbed represents the normal exploratory behavior of the rat introduced into the enclosure. Normally, an efficacious anxiolytic compound should decrease, during the test which lasts 3 minutes, the number of rearing movements without modifying the number of steps climbed, or on the contrary should increase this latter parameter.

[3] = Anxiolytic activity by MacMillan's conflict test; settings: rats, i.p., 2,5 mg.kg^-1, vs physiological saline
Text: In these conditioning experiments which operate in the presence of a food reward, performed in rats according to the method described by MacMillan in Fed. Proceedings, 1975, 34, (9), p. 1870-1879, two parameters in the animal's behavioral responses are considered. The first parameter is the variation in the level of punished responses, in the presence of an electric shock, under the influence of the treatment in comparison with the level of punished responses under the influence of physiological saline. The second parameter is the variation in the level of unpunished responses, without an electric shock, under the influence of the same treatment, in comparison with the level of unpunished responses when physiological saline is administered. A specific anxiolytic effect is established when, after the administration of a substance, the level of only the punished responses is increased.

[4] = Anxiolytic activity by the Geller-Seifter test; settings: rats, i.p., p<0.05
Procedure: The anxiolytic activity of the compounds of the present invention was also assessed in rats with the Geller-Seifter test described by Geller, Kulac and Seifter in Psychopharmacologia, 1962, 3, p. 374-375.
An increase related exclusively to the levels of the punished responses determines the existence of an authentic anxiolytic effect.

[5] = Inhibition of isolation-induced aggression in mice; settings: Mus musculus, ip, read-out: Inhibitory ED50 (effective dose inhibiting 50% of the aggressive animals)
Text: The compounds of general formula I inhibit the attacking behavior of mice rendered aggressive by isolation according to the method described by Yen, Stanger and Millman in Arch. Int. Pharmacodyn. 1959, 123, p. 179-185.

[6] = Inhibition of aggression in isolated and bulbectomized rats
Procedure: The inhibition of aggression was assessed according to the method described by Vergnes and Karli in C.R. Soc. Biol. 1963, 157, p. 1061. The effect on the aggression is assessed in terms of the percentage of animals which became non-killers after treatment.

[7] = Inhibition of the active conditioned avoidance response in rats; settings: i.p.
Text: The results obtained with the compounds of general formula I during the various experiments employing the method described by Courvoisier et al. in Arch. Int. Pharmacodyn., 1953, 92, p. 305-361 and by Janssen et al. in Arzneim, Forsch, 1965, 15, p.

For O=C1CN(Cc2ccccc2F)CC(=O)N1CCCN1CCN(c2cccc(C(F)(F)F)c2)CC1 [Example 1, 4-(2-Fluorobenzyl)-1-{3-[1-(3-trifluoromethylphenyl)-4-piperazinyl]propyl}-2,6-piperazinedione dimandelate], which change in vivo at 5 mg/kg [1] is on record?
Its change in vivo at 5 mg/kg is 65%.

What about the “% increase in the responses” value ([1]; p.o., 50 mg.kg^-1) of the same compound?
The value was 64%.

What about the “% variation in the rearing movements” value ([2]; i.p., 10 mg.kg^-1) of the same compound?
The value was -39%.

What about the “% variation in the steps climbed” value ([2]; i.p., 10 mg.kg^-1) of the same compound?
Its value is “NS”.

And the “% variation in the rearing movements” value ([2]; i.p., 20 mg.kg^-1)?
Its value is -64%.

And the “% variation in the steps climbed” value ([2]; i.p., 20 mg.kg^-1)?
The value was “NS”.

What about the “% variation in the rearing movements” value ([2]; i.p., 2,5 mg.kg^-1) of the same compound?
Its value is -20%.

What about the “% variation in the steps climbed” value ([2]; i.p., 2,5 mg.kg^-1) of the same compound?
Its value is “NS”.

And the “% variation in the unpunished responses” value ([3]; NS (not significant))?
Its value is “+18%”.

What about the “% variation in the punished responses” value ([3]; S (significant)) of the same compound?
Its value is “+49%”.

What about the “increase in the punished responses” value ([4]; 2.5 mg.kg^-1) of the same compound?
Its value is 39%.

What about the ED50 [5] of the same compound?
The ED50 was 7.64 mg/kg.

And the “% of non-killer animals” value ([6]; i.p., 25 mg.kg^-1)?
Its value is 45%.

For O=C1CN(Cc2ccccc2F)CC(=O)N1CCCN1CCN(c2cccc(Cl)c2)CC1 [Example 2, 4-(2-Fluorobenzyl)-1-{3-8 1-(3-chlorophenyl)-4-piperazinyl]propyl}-2,6-piperazinedione dimandelate], which “increase in the punished responses” value ([4]; 5.0 mg.kg^-1) is on record?
The value was 65%.

What does the source list for O=C1CN(Cc2ccccc2)CC(=O)N1CCCN1CCN(c2ccc(F)cc2)CC1 [Example 9, 4-Benzyl-1-{3-[1-(4-fluorophenyl)-4-piperazinyl]propyl}-2,6-piperazinedioneoxalate]?
ED50 [5]: 8.6 mg/kg; % of non-killer animals ([6]; i.p., 25 mg.kg^-1): 60%

For Cc1ccccc1N1CCN(CCCN2C(=O)CN(Cc3ccccn3)CC2=O)CC1.Cl.Cl.Cl [Example 19, 4-(2-Pyridylmethyl)-1-{3-[1-(2-methylphenyl)-4-piperazinyl]propyl}-2,6-piperazinedione trihydrochloride], which ED50 [5] is on record?
Its ED50 is 6.78 mg/kg.

And the “% ICAR (percentage inhibition of the conditioned avoidance response)” value ([7]; 20 mg.kg^-1)?
The value was 26%.

What about the “% ICAR (percentage inhibition of the conditioned avoidance response)” value ([7]; 40 mg.kg^-1) of the same compound?
Its value is 73%.

Which change in vivo at 5 mg/kg [1] does the source give for O=C(O)C(=O)O.O=C(O)C(=O)O.O=C1CN(Cc2ccccn2)CC(=O)N1CCCN1CCN(c2cccc(C(F)(F)F)c2)CC1 [Example 21, 4-(2-Pyridylmethyl)-1-{3-[1-(3-trifluoromethylphenyl)-4-piperazinyl]propyl}-2,6-piperazinedione dioxalate] here?
Its change in vivo at 5 mg/kg is 69%.

What about the ED50 [5] of the same compound?
Its ED50 is 11.1 mg/kg.

And the “% of non-killer animals” value ([6]; i.p., 12,5 mg.kg^-1)?
The value was 73%.
